This note sets out measurements from US10577364B2, “Crystalline form of fused pyridine derivative's maleate and uses thereof” (priority 2015, dated 2020).

Data set [1] is described as follows: Pharmacokinetic study, oral administration to fasted SD rats. The following applies: for AUC(0-inf) / AUC(0-t) / Cmax / Tmax / half-life: SD, rat, plasma, po, 50 mg/kg.
From the text: (§1) The Compound of Formula II and the Crystalline Form of Formula I were ground to fine particles. The material content (purity) was not less than 99.0%. Sodium carboxymethyl cellulose was medical supply graded.
(§2) Experimental animals: SD rats were divided to a Compound of Formula II group and a Crystalline Form of Formula I group, with both groups consisting of three males and three females.
(§3) Pharmaceutical preparation: each compound was formulated in 0.5% (w/v) aqueous sodium carboxymethyl cellulose and the final concentration of each compound was 10 mg/mL.
(§4) Administration and sample collection: each suspension was administered orally to fasted SD rats at a dose equivalent to 50 mg/kg the Compound of Formula II in a dose volume of 5 mL/kg. The blood samples were collected in EDTA-K pre anticoagulant tubes just before dosing (0 h) and at 0.5, 1, 1.5, 2, 4, 6, 8 and 24 hrs after dosing. The plasma from these samples was separated by centrifugation at 3000 rpm for 10 min at 4° C. The plasma samples were collected and stored at −80° C. until analysis.
(§5) Samples were analyzed by HPLC. Chemical ingredients were separated on a C18 DIKMA Platisil column (250×4.6 mm, 5 μm). An Isocratic mobile phase system consisting of acetonitrile-water (55:45) with 0.02 mol/L of sodium dihydrogen phosphate (adjusted pH to 6.0 by using sodium hydroxide solution) employed for sample analysis. The sample injection volume was 20 μL and the detection wavelength was 302 nm.
Data set [2] can be described thus: Kinetic solubility in H2O at RT. The conditions noted are these: for pH / Form Change: H2O, RT; for Form Change: residual solids by XRPD.
Method: (§6) Kinetic solubility of the Crystalline Form of Formula I and N-(4-(2,3-dihydro-1H-pyrrolo[2,3-b]pyridin-4-yloxy)-3-fluorophenyl)-5-(4-fluorophenyl)-4-oxo-1,4-dihydropyridine-3-carboxamide (the Compound of Formula II) was studied in H2O at RT. After stirring approximate 4 mg solid in per 2 mL H2O at RT for a set amount of time, 0.6 mL suspension was centrifuged with the residual solids analyzed by XRPD and the concentrations in supernatants measured by high performance liquid chromatography (HPLC).
Data set [3] can be described thus: physchem. The following applies: water, thermodynamic from solid.
Method: as §6
Data set [4] in a line: Long term stability storage, XRPD. The format is physicochemical. The following applies: 25° C.±2° C./RH60%±10%, aluminum-plastic composite film bag, 0 m to 36 ms. The protocol: About 500 g of the Crystalline Form of Formula I was placed into a bag of aluminum-plastic composite film, and the bag was stored under conditions of 25° C.±2° C./RH60%±10% for 0 m, 3 ms, 6 ms, 9 ms, 12 ms, 18 ms, 24 ms, or 36 ms.

Data set [5] in a line: Thermodynamic stability, stress test storage, XRPD. The format is physicochemical. The conditions noted are these: 40° C.±2° C./RH75%±5%, aluminum-plastic composite film bag, 0 m, 1 m, 2 ms, 3 ms, or 6 ms. The protocol:
About 500 g of the Crystalline Form of Formula I was placed into a bag of aluminum-plastic composite film, and the bag was stored under stress test conditions of 40° C.±2° C./RH75%±5% for 0 m, 1 m, 2 ms, 3 ms, or 6 ms.

The nature of data set [6]: in vivo. The conditions noted are these: SD, rat, po, 50 mg/kg.
From the text: as §1, §2, §3, §4, §5
Where [7] appears, read: water, thermodynamic from solid.

Broadly, the AUC(0-inf) is the area under the concentration-time curve extrapolated to infinity. Lower therefore signals low exposure. A word on the AUC(0-t): it is the area under the concentration-time curve up to a stated or last time point. Low readings indicate low exposure, high ones high exposure. As a reminder, the Cmax is the highest concentration seen after dosing. Usually Tmax stands for the time from dosing to the highest level. What is called half-life is the time needed for the level to fall by half in the phase considered. A low value points to fast loss. Broadly, the solubility (kinetic) is the concentration staying in solution when a stock, usually in DMSO, is diluted into the medium.

Take `O=C(Nc1ccc(Oc2ccnc3c2CCN3)c(F)c1)c1c[nH]cc(-c2ccc(F)cc2)c1=O` [The Compound of Formula II, N-(4-(2,3-dihydro-1H-pyrrolo[2,3-b]pyridin-4-yloxy)-3-fluorophenyl)-5-(4-fluorophenyl)-4-oxo-1,4-dihydropyridine-3-carboxamide]: in data set [1] (female), the AUC(0-inf) was determined as 18200 ± 4600 ng·h/mL, the AUC(0-t) turned out to be 9700 ± 6300 ng·h/mL, the Cmax amounted to 1900 ± 1100 ng/mL and the time of peak concentration (Tmax) amounted to 6 ± 2 h. The compound further gave a half-life in data set [1] (female) of 4.7 ± 3.7 h. Besides, in data set [1] (male), the AUC(0-inf) stood at 17100 ± 7000 ng·h/mL, the AUC(0-t) was 10100 ± 2900 ng·h/mL, the highest level (Cmax) was 2200 ± 600 ng/mL and the Tmax is 4.5 ± 2.6 h. This compound had a half-life in data set [1] (male) of 6.4 ± 2.6 h. Further, in data set [2] (1 h), the pH came to 7.2 and the “Form Change” value is “No”. In data set [2] (4 hrs), the pH was found to be 7.3 and the “Form Change” value is reported as “No”. Further, in data set [2] (24 hrs), the pH stood at 7.3 and the “Form Change” value is recorded as “No”. For the same compound, in data set [2] (setting [7]), the kinetic solubility at 1 h came out at 0.8 µg/mL, the solubility (kinetic) at 4 h was 1.1 µg/mL and the solubility (kinetic) at 24 h was found to be 0.5 µg/mL.

In data set [3], `O=C(Nc1ccc(Oc2ccnc3c2CCN3)c(F)c1)c1c[nH]cc(-c2ccc(F)cc2)c1=O.O=C(O)/C=C\C(=O)O` [The Crystalline Form of Formula I, N-(4-(2,3-dihydro-1H-pyrrolo[2,3-b]pyridin-4-yloxy)-3-fluorophenyl)-5-(4-fluorophenyl)-4-oxo-1,4-dihydropyridine-3-carboxamide maleate] showed a solubility (kinetic) at 1 h of 59 µg/mL, a solubility (kinetic) at 4 h of 47.8 µg/mL and a kinetic solubility at 24 h of 98.3 µg/mL. Moreover, the “Absorption compared with the Compound of Formula II” value in data set [1] (SD rats, oral, dose equivalent to 50 mg/kg the Compound of Formula II) is listed as “higher absorption than the Compound of Formula II”. Moreover, the “Crystalline Form determined by XRPD after storage (long term stability)” value in data set [4] was “purely the Crystalline Form of formula I”. Further, in data set [2] (1 h), the pH came to 4.3 and the “Form Change” value was “No”. For the same compound, in data set [2] (4 hrs), the pH was 4.1 and the “Form Change” value is “No”. For the same compound, in data set [2] (24 hrs), the pH is given as 3.8 and the “Form Change” value is given as “No”. In addition, in data set [5], the “Crystalline Form determined by XRPD after storage (thermodynamic stability)” value is recorded as “purely the Crystalline Form of formula I”. In data set [6] (female), the area under the curve AUC(0-inf) came out at 49300 ± 22200 ng·h/mL, the AUC(0-t) was determined as 46400 ± 21600 ng·h/mL, the concentration peaked (Cmax) at 7500 ± 700 ng/mL and the Tmax was found to be 2 h. This compound showed a half-life in data set [6] (female) of 3.7 ± 2.8 h. Moreover, in data set [6] (male), the area under the curve AUC(0-inf) was 17000 ± 6100 ng·h/mL, the AUC(0-t) amounted to 15900 ± 5100 ng·h/mL, the Cmax is 3900 ± 700 ng/mL and the Tmax turned out to be 2.7 ± 1.2 h. In data set [6] (male), this compound showed a half-life of 1.7 ± 0.9 h.
